From patent US20100137394A1, “PYRAZOLE INHIBITORS OF WNT SIGNALING” (Grenentech, Inc., priority 2007, published 2010) come the findings set out here.

The IC50 is the concentration needed to halve the response being measured.

SMILES strings stand for the structures.

The assay concerns Wnt pathway signaling. Put plainly: Wnt Assay (Super8xTopflash reporter assay). It is filed as cell-based. The note with it: 10T1/2 Super8xTopflash reporter cell line, Wnt3a in medium, luciferase signal read after 20-24 h; read-out: IC50, inhibition of Wnt pathway signaling activity. Here is the method:
10T1/2 Super8xTopflash reporter cell line was generated by stable transfection of a Super8xTopflash reporter plasmid containing 8 tandem repeats of TCF4 binding sites upstream of Luciferase gene. Cells were seeded at 20 K/well density (in normal growth medium with 10% FBS and 0.4 mg/ml G418) in white 96-well plates with clear bottom (BD Falcon Microtest Optilux plate, Ref. 353947) and grown for 20-24 hours. Fesh growth medium was prepared without G418 and with appropriate Wnt3a concentration (concentration that gave 40-50% of maximum activation based on the dose-response curve performed for each new batch of protein; typically ˜0.1 ug/ml).
Old medium was removed from the 96-well plate, which was gently blotted on paper towel, then all relevant wells were replenished with fresh medium containing Wnt (100 ul/well).
The wells with highest compound concentrations (usually 10 or 30 uM) were filled separately with 150 ul of prepared medium containing both Wnt3a and the test compounds. Using a multichannel pipetman, 50 ul was drawn from these wells and dispensed and mixed gently into the next row of wells to achieve 1:3 dilution of compounds. […]
After 20-24 h the cells were lysed and the luciferase signal was read using Perkin Elmer luclite assay system, Cat. #6016911). […] Approximately 15 min later the plates were read on a TopCount machine.
For orientation: Reporter assays use an easily measured gene product as a stand-in for the process of interest.

Turning to `COc1ccc(CC(=O)N2CCC(c3ccc(NS(C)(=O)=O)cc3)=N2)cc1OC` [compound 12], the IC50 was 218 nM.
